Experimental data reported in patent US4983740A, “Process for 1,4-dihydropyridine compounds” (Adir et Compagnie, priority 1986, dated 1991).
Blank lines part the entries; values can stand above or below the compound they belong to.

How the values were obtained:
[1] = target: T1, dihydropyridine site associated with the calcium slow channel (Rattus norvegicus, UniProt Q02485); experiment: Affinity for the dihydropyridine binding site, displacement of [3H]-PN 200-110; parameters: species or system rat (Wistar); conditions: for Ki: displacement of [3H]-PN 200-110, microsomal membranes of rat skeletal muscle
T1 construct: microsomal membrane preparations prepared from skeletal muscle of rat (Wistar) hind limbs; from tissue; host or cells: skeletal muscle of rat (Wistar) hind limbs, microsomal fraction
T1 sequence (Q02485 whole entry): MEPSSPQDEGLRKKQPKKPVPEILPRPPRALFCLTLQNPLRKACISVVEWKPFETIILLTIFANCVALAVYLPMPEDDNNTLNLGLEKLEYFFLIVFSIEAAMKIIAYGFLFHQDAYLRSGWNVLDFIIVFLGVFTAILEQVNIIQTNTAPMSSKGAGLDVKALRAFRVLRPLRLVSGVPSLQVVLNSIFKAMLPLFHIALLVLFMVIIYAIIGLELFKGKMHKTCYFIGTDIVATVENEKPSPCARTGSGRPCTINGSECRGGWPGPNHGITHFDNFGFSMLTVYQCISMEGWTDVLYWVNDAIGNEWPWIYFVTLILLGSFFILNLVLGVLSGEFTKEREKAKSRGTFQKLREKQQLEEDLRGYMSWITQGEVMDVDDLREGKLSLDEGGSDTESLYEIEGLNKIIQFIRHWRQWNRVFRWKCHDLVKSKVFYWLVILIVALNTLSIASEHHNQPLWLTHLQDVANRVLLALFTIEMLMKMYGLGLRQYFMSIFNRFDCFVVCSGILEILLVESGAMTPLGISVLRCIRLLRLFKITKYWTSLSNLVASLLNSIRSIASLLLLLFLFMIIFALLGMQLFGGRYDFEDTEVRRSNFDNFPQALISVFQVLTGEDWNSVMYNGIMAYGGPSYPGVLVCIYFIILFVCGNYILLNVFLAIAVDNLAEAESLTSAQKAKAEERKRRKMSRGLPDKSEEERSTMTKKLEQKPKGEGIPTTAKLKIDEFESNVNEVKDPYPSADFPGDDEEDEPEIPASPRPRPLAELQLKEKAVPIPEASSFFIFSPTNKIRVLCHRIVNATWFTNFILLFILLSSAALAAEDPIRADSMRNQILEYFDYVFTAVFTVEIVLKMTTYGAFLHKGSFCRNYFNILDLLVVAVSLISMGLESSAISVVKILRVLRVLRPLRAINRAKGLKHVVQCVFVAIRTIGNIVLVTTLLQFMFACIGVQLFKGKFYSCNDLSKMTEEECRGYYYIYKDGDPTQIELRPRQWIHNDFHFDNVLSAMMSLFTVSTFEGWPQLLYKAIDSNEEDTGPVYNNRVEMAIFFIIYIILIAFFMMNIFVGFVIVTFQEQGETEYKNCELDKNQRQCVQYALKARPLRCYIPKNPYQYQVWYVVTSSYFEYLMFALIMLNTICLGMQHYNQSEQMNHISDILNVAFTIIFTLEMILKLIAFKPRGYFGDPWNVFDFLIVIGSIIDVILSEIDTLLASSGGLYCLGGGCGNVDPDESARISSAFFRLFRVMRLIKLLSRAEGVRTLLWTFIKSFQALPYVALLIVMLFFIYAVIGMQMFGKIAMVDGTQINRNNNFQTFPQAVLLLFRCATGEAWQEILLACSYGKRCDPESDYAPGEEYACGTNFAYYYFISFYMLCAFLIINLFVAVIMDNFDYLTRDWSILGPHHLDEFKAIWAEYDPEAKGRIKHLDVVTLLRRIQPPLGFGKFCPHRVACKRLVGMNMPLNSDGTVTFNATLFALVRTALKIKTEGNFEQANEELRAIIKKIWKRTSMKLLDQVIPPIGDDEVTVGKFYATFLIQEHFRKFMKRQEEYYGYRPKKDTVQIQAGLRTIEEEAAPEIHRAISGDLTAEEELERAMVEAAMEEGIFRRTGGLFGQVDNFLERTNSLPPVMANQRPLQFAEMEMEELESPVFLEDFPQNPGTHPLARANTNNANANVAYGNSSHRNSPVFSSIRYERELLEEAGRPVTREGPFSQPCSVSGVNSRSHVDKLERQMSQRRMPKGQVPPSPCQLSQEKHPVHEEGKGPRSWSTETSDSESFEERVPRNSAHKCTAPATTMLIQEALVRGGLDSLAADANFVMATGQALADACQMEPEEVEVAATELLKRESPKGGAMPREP
T1 sequence (P54290 25-945 partner limits assumed): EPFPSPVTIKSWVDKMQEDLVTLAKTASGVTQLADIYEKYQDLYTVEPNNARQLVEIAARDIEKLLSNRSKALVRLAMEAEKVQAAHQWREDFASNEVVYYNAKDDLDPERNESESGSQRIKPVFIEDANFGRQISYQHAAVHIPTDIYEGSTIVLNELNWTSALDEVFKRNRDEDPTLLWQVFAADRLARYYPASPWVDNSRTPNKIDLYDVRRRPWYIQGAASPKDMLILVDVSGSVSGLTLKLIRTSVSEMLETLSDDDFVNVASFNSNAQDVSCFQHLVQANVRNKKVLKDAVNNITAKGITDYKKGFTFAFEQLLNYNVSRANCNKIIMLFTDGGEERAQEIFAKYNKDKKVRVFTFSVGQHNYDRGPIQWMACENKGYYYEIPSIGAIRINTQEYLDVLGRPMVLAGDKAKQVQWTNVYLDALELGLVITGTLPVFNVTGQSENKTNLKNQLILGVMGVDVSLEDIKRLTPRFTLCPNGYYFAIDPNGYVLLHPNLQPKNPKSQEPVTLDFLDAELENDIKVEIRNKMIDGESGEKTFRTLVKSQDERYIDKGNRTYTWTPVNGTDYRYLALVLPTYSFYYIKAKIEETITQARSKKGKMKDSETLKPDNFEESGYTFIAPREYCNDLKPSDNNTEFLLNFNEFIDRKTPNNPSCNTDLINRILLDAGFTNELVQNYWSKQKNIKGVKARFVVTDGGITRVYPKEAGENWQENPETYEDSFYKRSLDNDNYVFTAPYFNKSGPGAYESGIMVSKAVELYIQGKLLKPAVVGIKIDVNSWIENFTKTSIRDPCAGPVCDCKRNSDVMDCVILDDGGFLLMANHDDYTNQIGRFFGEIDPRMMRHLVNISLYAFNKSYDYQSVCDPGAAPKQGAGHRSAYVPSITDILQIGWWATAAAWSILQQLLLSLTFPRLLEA
T1 sequence (P54290 946-1091 partner limits assumed): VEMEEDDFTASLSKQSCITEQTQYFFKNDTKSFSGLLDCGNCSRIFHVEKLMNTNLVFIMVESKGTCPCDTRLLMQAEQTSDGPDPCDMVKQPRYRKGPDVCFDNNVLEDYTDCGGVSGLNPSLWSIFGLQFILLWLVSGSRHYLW
T1 sequence (P54283 whole entry partner): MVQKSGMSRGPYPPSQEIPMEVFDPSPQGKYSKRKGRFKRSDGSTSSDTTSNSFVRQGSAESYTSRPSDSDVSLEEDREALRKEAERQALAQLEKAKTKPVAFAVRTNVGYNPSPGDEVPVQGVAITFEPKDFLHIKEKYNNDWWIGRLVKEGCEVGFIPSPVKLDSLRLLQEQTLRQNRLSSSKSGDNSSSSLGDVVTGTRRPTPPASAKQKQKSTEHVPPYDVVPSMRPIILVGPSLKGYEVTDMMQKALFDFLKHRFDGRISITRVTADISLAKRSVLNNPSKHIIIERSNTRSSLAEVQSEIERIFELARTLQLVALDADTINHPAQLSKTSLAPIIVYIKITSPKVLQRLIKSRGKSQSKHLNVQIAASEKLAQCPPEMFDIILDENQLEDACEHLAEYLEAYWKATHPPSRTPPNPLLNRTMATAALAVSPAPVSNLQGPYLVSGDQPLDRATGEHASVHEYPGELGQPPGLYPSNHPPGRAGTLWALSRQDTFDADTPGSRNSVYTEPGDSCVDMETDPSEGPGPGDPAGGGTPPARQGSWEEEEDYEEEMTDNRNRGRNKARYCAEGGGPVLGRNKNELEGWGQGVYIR
T1 sequence (P97707 whole entry partner): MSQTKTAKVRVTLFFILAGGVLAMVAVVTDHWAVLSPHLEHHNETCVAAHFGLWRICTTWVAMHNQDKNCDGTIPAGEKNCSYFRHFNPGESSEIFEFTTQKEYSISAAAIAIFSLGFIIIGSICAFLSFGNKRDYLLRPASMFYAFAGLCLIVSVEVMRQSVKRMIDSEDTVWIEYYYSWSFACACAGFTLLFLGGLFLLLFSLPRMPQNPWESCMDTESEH
Procedure: Affinity for the Dihydropyridine Binding Site
This study was carried out on microsomal membrane preparations prepared from skeletal muscle of rat (Wistar) hind limbs.
The rats are killed by decapitation. The skeletal muscles are removed and washed in buffer I (20 mM MOPS/KOH pH 7.4, 0.3M sucrose, 1 mM EDTA, 0.1 mM iodoacetamide, 1 μM pepstatin A, 1 mg/l leupeptin and 0.1 μM PMSF). The muscles are then mechanically fragmented, taken up in 4 volumes of buffer I per gramme of tissue and homogenized.
The homogenate is then centrifuged for 10 minutes at 3,200 g, the pellets are removed and the supernatants are then centrifuged for 20 minutes at 15,000 g, and the supernatants are stirred for 15 minutes at 4° C. in buffer I containing 0.6M final KCl and then centrifgued for 45 minutes at 70,000 g.
The pellets are taken up in buffer I and homogenized in a Potter. The homogenates are centrifuged at 100,000 g for 45 minutes and the pellets thereby obtained correspond to the microsomal fraction used for the studies of binding and displacement.
The activity of the product is assessed by the displacement of [^3 H]-PN 200-110, bound specifically to its receptor associated with the calcium slow channel, by increasing concentrations of the test products. The value obtained (K0.5) for each of the products, which represents the concentration of the product displacing 50% of the [^3 H]-PN 200-110, permits calculation of a true dissociation constant (KI): [formula] where [L*] is the concentration of free [^3 H]-PN 200-110 and Kd the dissociation constant at equilibrium of the [^3 H]-PN 200-110 complex, determined by direct binding.
The KI values of the two products are recorded in Table VI

[2] = test system: conscious spontaneous hypertensive rats (SHR); experiment: Long-term studies in conscious spontaneous hypertensive rats (oral, single daily dose, systolic arterial pressure); format: in vivo, rat (SHR); conditions: 1 mg/kg/d
Procedure: Long-term Studies in Conscious Spontaneous Hypertensive rats (SHR) Male rats weighing 280 to 300 g, aged 16 weeks, are used in this study. The systolic arterial pressure is determined with a Rhema multichannel 8,000® apparatus, according to the indirect method, at the tail of the animal. The compounds to be tested are administered orally, in a single daily dose. Determinations of arterial pressure are carried out each day just before the treatment. Amlodipine was also studied under the same conditions.

rat aorta = experiment: In vitro activity in rat aorta stimulated by potassium ions; format: cell-based, rat (male Wistar); conditions: 1 h; rat aorta rings, KCl 80 mM stimulation, cumulative doses at 60 minutes intervals
[3] = test system: conscious spontaneous hypertensive rats (SHR); experiment: Short-term studies in conscious spontaneous hypertensive rats (oral, systolic arterial pressure); format: in vivo, rat (SHR)
Procedure: Short-term Studies in Conscious Spontaneous Hypertensive Rats (SHR)
Male spontaneous hypertensive rats weighing 270 to 320 g, aged 16 to 24 weeks, are anesthetized with ether. A polyethylene catheter is introduced into the femoral artery and moved forward to the level of the tail. The pressure in the femoral artery is recorded with a Statham® P23 sensor, on a Gould® 2400 recorder. The animals are treated at least one hour after the operation. The compounds are administered orally, in the dissolved form. The doses administered are expressed in mg/kg of base. The compounds of the invention were compared with amlodipine and with another 1,4-dihydropyridine derivative reference compound, nifedipine.

[4] = test system: unanesthetized spontaneously hypertensive rats (SHR); experiment: Study in unanesthetized spontaneously hypertensive rats (intravenous, systolic blood pressure); format: in vivo, rat (SHR); conditions: for Systolic blood pressure changes (ΔmmHg) after treatment, 1H 30 min / Systolic blood pressure changes (ΔmmHg) after treatment, 3H / Systolic blood pressure changes (ΔmmHg) after treatment, 6H: 0.1 mg/kg, intravenous
Procedure: Study in Unanesthetized Spontaneously Hypertensive Rats (SHR)
SHR male rats weighing 280 to 350 g and aged from 18 to 24 weeks are anaesthetized with imalgene® (150 mg/kg i.p.). Two polyethylene catheters are introduced, one into the abdominal aorta for the recording of hemodynamic parameters and the other into the jugular vein for the administration of the products. The catheters are taken through to neck level. The animals are used at least 48 hours after surgical intervention.
The systolic and diastolic abdominal bood pressures are recorded by means of a Statham P23XL transducer on a Gould ES 1000 recorder. The products are administered intravenously in a volume of 0.5 ml/kg. The doses administered of the test compounds are expressed in mg/kg of base. The blood pressure is recorded in continuous fashion up to 6 hours after the treatment.
The changes in systolic blood pressure after treatment are recorded in Table VIII.

[5] = test system: conscious dogs with renal hypertension; experiment: Study in conscious dogs with renal hypertension (oral, mean arterial pressure); format: in vivo, dog (Mongol); conditions: digestive route
From the text: Study in Conscious Dogs with Renal Hypertension
Mongol dogs weighing 20 to 25 kg are used. A Silastic® catheter, inserted under anesthesia at the level of the abdominal aorta, left in position permanently, enables the arterial pressure to be determined subsequently in the conscious animal.
Arterial hypertension is induced by a second operation, under anesthesia, consisting in constricting the left renal artery with a clip, decreasing the flow rate therein by approximately 70%, the left kidney is also covered with a latex capsule in order to restrict circulatory compensations; the contralateral kidney is left in position.
The systolic, diastolic and mean arterial pressures are determined with a Statham® P23 pressure sensor attached to the Silastic® catheter and connected to a Gould® "pressure-processor". The compounds are tested in animals which became hypertensive in the conscious state at least one week after the second operation. The arterial pressure is continuously recorded up to 7 hours after the treatment and then at 24 hours.
The compounds to be tested are administered by the digestive route through gastric tubing, in the form of a solution which may be aqueous, aqueous/alcoholic and the like, depending on the solubility of the products.
The doses administered are expressed in mg base per body weight kg.

[6] = target: isolated rabbit mesenteric artery (Oryctolagus cuniculus, UniProt P15381); experiment: Study on isolated rabbit mesenteric artery contracted with calcium; format: cell-based, rabbit (New Zealand); conditions: compound of example 50 versus its racemate
Procedure: Study on Isolated Rabbit Mesenteric Artery Contracted with Calcium
This test is performed on organs removed from male New Zealand rabbits weighing 2.5 to 3 kg, subjected to a water regimen for 18 hours before sacrifice.
After the animal is rapidly sacrificed, the mesenteric artery is removed and dissected into rings 2 mm long; the endothelium is removed mechanically.
After a stabilization period of 90 minutes, the preparations are subjected to a depolarizing medium (35 mM KCl) without calcium (0.1 mM EGTA) for 15 minutes.
A control series is prepared by adding cumulative doses of calcium to the bath every 6 minutes until a maximum of effect is produced. The preparations are then rinsed for a period of 15 minutes and the product is incubated for one hour before renewal of the calcium series.
A single concentration of the product is tested per organ.
The responses obtained in the presence of product are expressed as a percentage of the maximal value of the control series.
The pD'2 value is calculated according to the method of Van Rossum (1963).

Ki [1]: 8.2 ± 1.7 nM
IC50 (rat aorta): 5 nM
SMILES: CCOC(=O)C1=C(COCCOCCN)NC(C)=C(C(=O)OC)C1c1cccc(Cl)c1Cl (racemic) [EXAMPLE 6, (4R,S)-2-{[2-(2-Aminoethoxy)ethoxy]methyl}-4-(2,3-dichlorophenyl)-3-ethoxycarbonyl-5-methoxycarbonyl-6-methyl-1,4-dihydropyridine]
Systolic arterial pressure Δ(mm Hg) 24 h after the last administration of the products, D1 ([2]; day 1): -22 mm Hg
Systolic arterial pressure Δ(mm Hg) 24 h after the last administration of the products, D2 ([2]; day 2): -18 mm Hg
Systolic arterial pressure Δ(mm Hg) 24 h after the last administration of the products, D4 ([2]; day 4): -17 mm Hg
Systolic arterial pressure Δ(mm Hg) 24 h after the last administration of the products, D7 ([2]; day 7): -31 mm Hg
Systolic arterial pressure after treatment, Δ mm Hg, 4 h ([3]; 1 mg/kg): -14 mm Hg
Systolic arterial pressure after treatment, Δ mm Hg, 6 h ([3]; 1 mg/kg): -17 mm Hg
Systolic arterial pressure after treatment, Δ mm Hg, 24 h ([3]; 1 mg/kg): -17 mm Hg
Systolic arterial pressure after treatment, Δ mm Hg, 4 h ([3]; 3 mg/kg): -52 mm Hg
Systolic arterial pressure after treatment, Δ mm Hg, 6 h ([3]; 3 mg/kg): -55 mm Hg
Systolic arterial pressure after treatment, Δ mm Hg, 24 h ([3]; 3 mg/kg): -36 mm Hg
Systolic blood pressure changes (ΔmmHg) after treatment, 1H 30 min [4]: -11 ± 3 mmHg
Systolic blood pressure changes (ΔmmHg) after treatment, 3H [4]: -5 ± 3 mmHg
Systolic blood pressure changes (ΔmmHg) after treatment, 6H [4]: -5 ± 2 mmHg
Mean arterial pressure after treatment, Δ mm Hg, 4 h ([5]; 0.5 mg/kg): -20 mm Hg
Mean arterial pressure after treatment, Δ mm Hg, 7 h ([5]; 0.5 mg/kg): -29 mm Hg
Mean arterial pressure after treatment, Δ mm Hg, 24 h ([5]; 0.5 mg/kg): -11 mm Hg
Mean arterial pressure after treatment, Δ mm Hg, 4 h ([5]; 1.0 mg/kg): -40 mm Hg
Mean arterial pressure after treatment, Δ mm Hg, 7 h ([5]; 1.0 mg/kg): -44 mm Hg
Mean arterial pressure after treatment, Δ mm Hg, 24 h ([5]; 1.0 mg/kg): -49 mm Hg

affinity for the dihydropyridine sites compared with its racemate ([1]; compound of example 50 versus its racemate): 30 times
Ki [1]: 0.28 ± 0.15 nM
superiority compared with its racemate in preventing a calcium-induced vascular contraction [6]: more than double
SMILES: CCOC(=O)C1=C(COCCOCCN)NC(C)=C(C(=O)OC)C1c1cccc(Cl)c1Cl (single isomer, unassigned; (-)) [EXAMPLE 50, (-)-2-{[2-(2-Aminoethoxy)ethoxy]methyl}-4-(2,3-dichlorophenyl)-3-ethoxycarbonyl-5-methoxycarbonyl-6-methyl-1,4-dihydropyridine]
Systolic blood pressure changes (ΔmmHg) after treatment, 1H 30 min [4]: -16 ± 2 mmHg
Systolic blood pressure changes (ΔmmHg) after treatment, 3H [4]: -18 ± 2 mmHg
Systolic blood pressure changes (ΔmmHg) after treatment, 6H [4]: -21 ± 5 mmHg
activity compared with its racemate six hours after treatment ([4]; same dose, six hours after treatment, versus racemate): approximately 4 times
activity compared with its racemate, in words ([4]; versus racemate): more potent and sustained even better over a period of time
